# Results as given in patent US20090047287A1, “MODULATION OF BONE FORMATION” (Wyeth, priority 2006, published 2009).
# T1: purified recombinant human GST-14-3-3β (Biomol), P31946
# T1 chain: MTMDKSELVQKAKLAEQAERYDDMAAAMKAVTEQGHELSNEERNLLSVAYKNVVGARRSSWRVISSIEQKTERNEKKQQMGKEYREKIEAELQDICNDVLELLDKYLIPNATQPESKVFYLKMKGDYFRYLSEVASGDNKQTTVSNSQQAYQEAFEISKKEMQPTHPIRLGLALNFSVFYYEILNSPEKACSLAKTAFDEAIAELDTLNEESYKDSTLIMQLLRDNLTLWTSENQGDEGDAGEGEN
# Assays:
# Ror2 receptor = molecular target: T2, Ror2 receptor (Homo sapiens, UniProt Q01974); assay: Ror2 dimerization in U2OS cells, Flag/His-tagged Ror2 co-immunoprecipitation; assay type: cell-based; settings: antibody 1 h at 37 C, vs non-specific goat IgG
# T2 construct: expressed in transfected cells; host or cells: U2OS
# Protocol: For Ror2 plasmid transfections, U2OS cells were seeded at ˜80% confluent density and transfected 24 h later with 11 μg of total plasmid DNA per 19.6 cm^2 using Fugene6 transfection reagent (Roche Applied Science, Indianapolis, Ind.) per manufacturer's instructions. For siRNA transfections, U2OS cells were plated on 6-well plates at 52,000 cells/cm^2 and transfected 24 h later with 25 nM of Ror2 siRNA or non-specific siRNA (both from Dharmacon Inc., Lafayette, Colo.) using 10 μl of Lipofectamine 2000 reagent per manufacturer's instructions.
# (§1) Cells were solubilized in lysis buffer (150 mM NaCl, 50 mM Tris-HCl, pH 7.5, 1 mM EDTA, 1% Triton X100) supplemented with protease and phosphatase inhibitor cocktails (Sigma) and the extracts were clarified by centrifugation at 10,000×g for 10 min at 4° C. For Flag immunoprecipitation, 1 mg of total cell lysates was incubated with 30 μl of M2 Flag affinity agarose (Sigma) for 1 h with rotation at 4° C. The beads were collected by centrifugation and washed three times in lysis buffer containing 350 mM NaCl and three times in lysis buffer. For 14-3-3β precipitation, 15 μl of 14-3-3β antibody was incubated with 30 μl of protein A sepharose in 1 ml of lysis buffer overnight at 4° C. and the beads were collected by centrifugation and washed in lysis buffer prior to addition of 1 mg of total cell lysates. […]
# Ror2 tyrosine kinase = molecular target: T3, Ror2 tyrosine kinase (Homo sapiens, UniProt Q01974); assay: Ror2 activation in U2OS cells, phosphotyrosine precipitation, Ror2 blot; assay type: cell-based; settings: untransfected U2OS cells, antibody 1 h at 37° C., vs IgG control
# T3 construct: western immunoblotting for the endogenous Ror2 protein; endogenous in cells; host or cells: U2OS
# Protocol: as §1, with “lysates. The binding reaction was carried out for 2 h at 4° C. with mild rotation and the beads were collected and washed as for Flag precipitation. For phosphotyrosine precipitation, 1 mg (for detecting over-expressed proteins) or 1.5 mg (for detecting endogenous proteins) of cellular extract was added to 100 μl of G410 beads and allowed to attach for 3 h at 4° C. At this time, P-Tyr-100 immobilized antibody (100 μl) was added to the mix for an additional 3 h. All beads were collected by centrifugation and washed as for Flag precipitation.” for “lysates.”
# Ror2-TrkB chimera = molecular target: T4, Ror2-TrkB chimera (Homo sapiens, UniProt Q01974, T245A); assay: Ror2-TrkB chimera CRE-luciferase reporter assay in HEK293 cells; assay type: cell-based; settings: HEK-CRE cells expressing Ror2-TrkB chimera, 24 h, compared to non-specific IgG
# T4 construct: extracellular domain of Ror2 (aa 1-407) fused to the transmembrane and intracellular domains of TrkB (aa 432-822); expressed in transfected cells
# Text: FIG. 12 illustrates generation of a high throughput, high sensitivity assay for Ror2 activity. A. Schematic representation of the assay that utilizes the signaling pathway of the TrkB receptor. The TrkB receptor is activated by ligand-induced homo-dimerization that causes phosphorylation of Erk and stimulation of the cAMP response element (CRE) in the promoter of target genes. We generated a chimeric receptor consisting of the extracellular domain of Ror2 (aa 1-407) fused to the transmembrane and intracellular domains of TrkB (aa 432-822). When using this chimera, agents that cause Ror2 dimerization activate TrkB signaling pathway and this activation can be assessed by a CRE promoter-luciferase reporter assay. B. HEK293 cells were stably transfected with the Ror2-TrkB chimera and CRE-luciferase plasmids, treated with the indicated amounts of the anti-Ror2 antibody or non-specific IgG for 24 h, and luciferase activity was assessed. Luciferase activity observed upon treatment with the non-specific IgG was set at 1. […]
# The TrkB receptor is activated by ligand-induced homo-dimerization that causes phosphorylation of Erk and stimulation of the cAMP response element (CRE) in the promoter of target genes. […] Colonies were grown at 37 C with 350 μg/ml hygromycin and levels of Ror2-TrkB expression were assessed by western immunoblotting and immunocytochemistry. […]
# [1] = test system: human mesenchymal stem cells (hMSC); assay: Mineralized matrix formation in hMSC, alizarin red-S staining; assay type: cell-based
# Protocol: Human MSC were seeded at 6,000/cm^2 in 12-, or 6-well plates and allowed to adhere and proliferate overnight. Cells were infected for 24 h in 0.4 ml/cm^2 MSCGM using Ror2, Ror2KD, or β-gal adenoviruses at multiplicity of infection (MOI)=750 in presence of hCAR (MOI=750) to improve infection efficiency. After 24 h, cells were washed once in PBS and MSCGM, MSCGM supplemented with 0.05 mM ascorbic acid and 10 mM β-glycerophosphate, or MSCGM containing adipogenic supplements (PT-3004, Cambrex) were added. Where indicated, 100 nM dexamethasone (dex) and/or the indicated antibodies were added to the medium. For shRNA infection, cells were seeded at 6,000/cm^2 in 12- or 6-well plates and allowed to adhere and proliferate for 3 days. Cells were infected for 72 h in 0.4 ml/cm^2 MSCGM using adenoviruses coding for Ror2-specific shRNA or EGFP-specific shRNA at 4,000 viral particles per cell (based on the original seeding density) in presence of hCAR (MOI=750). After 72 h, cells were washed once in PBS, and MSCGM or MSCGM supplemented with 0.05 mM ascorbic acid, 10 mM β-glycerophosphate were added. Where indicated 100 nM dex and/or specific antibodies were added. Every 5 days, either the entire medium or ½ of it was replaced with fresh medium.
# Formation of mineralized nodules by hMSC was determined on 12-well plates by alizarin red-S histochemical staining. The cells and matrix were fixed at RT for 1 h with 70% (v/v) ethanol, washed with de-ionized water and stained for 10 min at RT with 40 mM alizarin red-S, pH 4.2. The stained matrix was washed with de-ionized water and photographed. To quantify the level of alizarin red-S staining, the dye was eluted with 1 ml/well of 10% (w/v) Cetylpyridinium Chloride. Alizarin red-S in the eluted samples was quantified (versus a standard curve of 0-800 μM dye) at 562 nm with a microplate reader.
# 14-3-3β protein = assay: Ror2 activation in U2OS cells, phosphotyrosine precipitation, 14-3-3β blot; assay type: cell-based, human; settings: untransfected U2OS cells, antibody 1 h at 37° C., vs IgG control
# Protocol: as §1, with “lysates. The binding reaction was carried out for 2 h at 4° C. with mild rotation and the beads were collected and washed as for Flag precipitation. For phosphotyrosine precipitation, 1 mg (for detecting over-expressed proteins) or 1.5 mg (for detecting endogenous proteins) of cellular extract was added to 100 μl of G410 beads and allowed to attach for 3 h at 4° C. At this time, P-Tyr-100 immobilized antibody (100 μl) was added to the mix for an additional 3 h. All beads were collected by centrifugation and washed as for Flag precipitation.” for “lysates.”
# mouse calvarial bones = assay: Ex vivo mouse calvarial culture with shRNA adenovirus and antibody, histomorphometry (Bioquant); assay type: cell-based; settings: mouse calvariae, 7 days; shRNA 5×10^7 viral particles/ml, antibody 12 μg/ml; vs scrambled shRNA and IgG
# Protocol: We next tested if in vitro effects of Ror2 activation and 14-3-3β inhibition translate into increased bone formation in ex vivo organ cultures. Calvarial bones of 4 days old mouse littermates were infected with adenoviruses containing scrambled shRNA or 14-3-3β-specific shRNA at 5×10^7 viral particles/ml; and 48 h later were treated with 12 μg/ml of anti-Ror2 antibody or non-specific IgG in presence of 15 μg/ml calcein. After 7 days of culture with adenoviruses and antibodies, the bones were stained with hematoxylin-eosin and consistent 300 μm stretches (450 μm away from frontal sutures) were subjected to histomorphometric analysis using Bioquant-NOVA MR 5.50.8 (Nashville, Tenn.). Under control conditions of scrambled shRNA infection and IgG treatment, 600 μm length of calvaria contained 9394±1333 μm^2 of bone area and 39.5±7.4 osteoblasts.
# [2] = molecular target: T1, purified recombinant human GST-14-3-3β …
# T2 sequence (Q01974 34-943): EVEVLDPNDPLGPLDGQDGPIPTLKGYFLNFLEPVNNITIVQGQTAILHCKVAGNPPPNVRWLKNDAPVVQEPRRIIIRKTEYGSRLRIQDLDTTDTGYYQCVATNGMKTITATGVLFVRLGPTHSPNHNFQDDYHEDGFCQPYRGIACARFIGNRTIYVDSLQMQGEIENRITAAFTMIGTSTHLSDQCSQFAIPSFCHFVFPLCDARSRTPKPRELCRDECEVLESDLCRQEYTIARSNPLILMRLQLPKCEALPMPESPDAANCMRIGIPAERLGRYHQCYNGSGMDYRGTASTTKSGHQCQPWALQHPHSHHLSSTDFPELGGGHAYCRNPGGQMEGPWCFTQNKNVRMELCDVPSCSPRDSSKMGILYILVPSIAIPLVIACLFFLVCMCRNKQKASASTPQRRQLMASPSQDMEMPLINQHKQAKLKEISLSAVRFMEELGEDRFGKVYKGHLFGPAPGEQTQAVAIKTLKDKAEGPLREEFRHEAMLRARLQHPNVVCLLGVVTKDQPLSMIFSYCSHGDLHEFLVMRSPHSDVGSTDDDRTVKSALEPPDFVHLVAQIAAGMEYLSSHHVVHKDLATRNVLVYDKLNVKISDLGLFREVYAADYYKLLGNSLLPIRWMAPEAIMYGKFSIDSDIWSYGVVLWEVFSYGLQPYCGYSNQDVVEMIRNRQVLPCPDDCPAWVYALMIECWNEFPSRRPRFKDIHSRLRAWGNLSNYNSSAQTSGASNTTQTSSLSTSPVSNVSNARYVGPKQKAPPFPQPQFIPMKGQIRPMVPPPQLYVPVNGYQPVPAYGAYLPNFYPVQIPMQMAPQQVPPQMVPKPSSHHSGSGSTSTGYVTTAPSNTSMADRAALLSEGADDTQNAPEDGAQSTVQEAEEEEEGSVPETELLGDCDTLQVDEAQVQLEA
# T2 sequence (Q01974 34-943): as above
# T3 sequence (Q01974 34-943): as above
# T4 sequence (Q01974 with tags, fused parts or gaps T245A): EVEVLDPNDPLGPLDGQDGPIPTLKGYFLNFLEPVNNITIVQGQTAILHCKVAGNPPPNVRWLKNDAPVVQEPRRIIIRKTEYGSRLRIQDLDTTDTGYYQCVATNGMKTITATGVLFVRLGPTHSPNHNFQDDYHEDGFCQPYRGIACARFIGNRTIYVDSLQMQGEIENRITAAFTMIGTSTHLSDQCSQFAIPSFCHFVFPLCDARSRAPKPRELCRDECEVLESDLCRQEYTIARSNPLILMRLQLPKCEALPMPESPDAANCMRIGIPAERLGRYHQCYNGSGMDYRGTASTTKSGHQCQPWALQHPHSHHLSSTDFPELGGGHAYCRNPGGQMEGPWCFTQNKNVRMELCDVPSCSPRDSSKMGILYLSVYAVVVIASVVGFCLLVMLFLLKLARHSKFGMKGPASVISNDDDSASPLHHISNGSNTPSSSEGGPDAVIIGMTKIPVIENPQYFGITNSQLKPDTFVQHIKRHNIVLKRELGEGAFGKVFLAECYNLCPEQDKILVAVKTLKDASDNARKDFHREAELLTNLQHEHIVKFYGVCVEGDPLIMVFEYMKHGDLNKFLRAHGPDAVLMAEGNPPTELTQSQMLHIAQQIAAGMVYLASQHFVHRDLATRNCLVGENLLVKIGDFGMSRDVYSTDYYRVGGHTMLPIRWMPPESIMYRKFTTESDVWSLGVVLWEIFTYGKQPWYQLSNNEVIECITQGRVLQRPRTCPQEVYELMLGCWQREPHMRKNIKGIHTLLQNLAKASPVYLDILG
molecule,measurement,setting,value
"anti-Ror2 antibody: Ror2-specific goat polyclonal IgG raised against the extracellular domain of human Ror2, R&D Systems, AF2064",Ror2 homodimer formation (His-tagged with Flag-tagged Ror2),Ror2 receptor,strongly enhanced
same,autophosphorylation of the Ror2 kinase,Ror2 tyrosine kinase,significant autophosphorylation
same,luciferase activity (CRE promoter),Ror2-TrkB chimera,robust dose-dependent increase
same,antibody effect on matrix mineralization when Ror2 expression is inhibited,"[1]; hMSC infected with Ror2-specific shRNA, 100 nM dex, 9 days",disappeared
same,calcified matrix formation in absence of dex,"[1]; hMSC infected with Ror2 adenovirus, no dex, 19 days, vs non-specific goat IgG",induced calcified matrix formation
same,extent of calcified matrix formation (alizarin red-S),"[1]; hMSC, osteogenic cocktail with 100 nM dex, increasing amounts of IgG, 9 days",dose-dependently increased
same,phosphorylation of 14-3-3β protein,14-3-3β protein,phosphorylation
same,increase in the osteoblast number,mouse calvarial bones,85%
same,increase in the total bone area,mouse calvarial bones,50%
purified recombinant GST-tagged cytosolic domain of human Ror2 (Invitrogen) (protein) VCMCRNKQKASASTPQRRQLMASPSQDMEMPLINQHKQAKLKEISLSAVRFMEELGEDRFGKVYKGHLFGPAPGEQTQAVAIKTLKDKAEGPLREEFRHEAMLRARLQHPNVVCLLGVVTKDQPLSMIFSYCSHGDLHEFLVMRSPHSDVGSTDDDRTVKSALEPPDFVHLVAQIAAGMEYLSSHHVVHKDLATRNVLVYDKLNVKISDLGLFREVYAADYYKLLGNSLLPIRWMAPEAIMYGKFSIDSDIWSYGVVLWEVFSYGLQPYCGYSNQDVVEMIRNRQVLPCPDDCPAWVYALMIECWNEFPSRRPRFKDIHSRLRAWGNLSNYNSSAQTSGASNTTQTSSLSTSPVSNVSNARYVGPKQKAPPFPQPQFIPMKGQIRPMVPPPQLYVPVNGYQPVPAYGAYLPNFYPVQIPMQMAPQQVPPQMVPKPSSHHSGSGSTSTGYVTTAPSNTSMADRAALLSEGADDTQNAPEDGAQSTVQEAEEEEEGSVPETELLGDCDTLQVDEAQVQLEA,"in vitro kinase assay, immunoblot with phosphotyrosine antibody",[2],Ror2c phosphorylated both 14-3-3 β and itself
